Drawing on ChEMBL document CHEMBL5465560, “Selectivity Literature for EUbOPEN Chemogenomic Library” (2024), this text covers % of control, dTM and % of inhibition for 6 molecules.

Test [1] addresses Serine/threonine-protein kinase tousled-like 2 (Homo sapiens) (UniProt Q86UE8). Briefly: Selectivity interaction (KinomeScan (DiscoverX)) EUB0000666a TLK2. The following applies: at 10 µM.
The target of test [2] is T1, Serine/threonine-protein kinase NLK (Homo sapiens) (UniProt Q9UBE8).
T1 sequence (whole entry): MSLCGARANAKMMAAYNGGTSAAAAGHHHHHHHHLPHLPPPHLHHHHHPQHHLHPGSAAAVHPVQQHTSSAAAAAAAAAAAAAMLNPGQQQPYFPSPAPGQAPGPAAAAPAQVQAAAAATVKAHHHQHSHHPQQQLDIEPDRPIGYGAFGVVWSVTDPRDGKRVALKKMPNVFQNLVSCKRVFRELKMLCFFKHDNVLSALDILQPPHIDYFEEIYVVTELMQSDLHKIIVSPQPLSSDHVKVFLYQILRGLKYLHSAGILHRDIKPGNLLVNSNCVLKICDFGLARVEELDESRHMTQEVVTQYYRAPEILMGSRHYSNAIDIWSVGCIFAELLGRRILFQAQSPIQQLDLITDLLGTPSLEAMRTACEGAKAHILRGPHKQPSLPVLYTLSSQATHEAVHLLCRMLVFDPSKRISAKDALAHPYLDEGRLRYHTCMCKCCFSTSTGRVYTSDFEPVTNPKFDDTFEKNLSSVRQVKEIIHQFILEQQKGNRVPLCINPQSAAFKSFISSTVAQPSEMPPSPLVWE
Briefly: Selectivity interaction (KinomeScan (DiscoverX)) EUB0000666a NLK. Conditions: at 10 µM.

Test [3] addresses T2, Dual specificity mitogen-activated protein kinase kinase 4 (Homo sapiens) (UniProt P45985).
T2 sequence (whole entry): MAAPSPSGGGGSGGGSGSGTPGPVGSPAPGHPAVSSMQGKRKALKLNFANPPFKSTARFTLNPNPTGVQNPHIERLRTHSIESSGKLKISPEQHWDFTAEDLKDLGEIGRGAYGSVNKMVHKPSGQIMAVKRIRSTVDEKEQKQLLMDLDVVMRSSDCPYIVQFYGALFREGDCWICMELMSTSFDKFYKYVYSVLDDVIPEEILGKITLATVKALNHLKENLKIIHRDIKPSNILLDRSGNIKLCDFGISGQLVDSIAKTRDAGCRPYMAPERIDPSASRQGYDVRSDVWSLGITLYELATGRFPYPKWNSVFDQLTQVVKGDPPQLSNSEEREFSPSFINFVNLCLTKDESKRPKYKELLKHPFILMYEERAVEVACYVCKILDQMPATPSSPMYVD
Briefly: Selectivity interaction (Kinase panel (DSF assay)) EUB0001558a MAP2K4. A general note: In DSF a fluorescence change marks the thermal transition of the protein.

Test [4] has as its target ALK tyrosine kinase receptor (Homo sapiens, UniProt Q9UM73). Nature of the test: Selectivity interaction (KinaseProfiler screening (Millipore)) EUB0000601a ALK. Conditions: at 3 µM.
Test [5] deals with Serine/threonine-protein kinase PAK 6 (Homo sapiens) (UniProt Q9NQU5). Briefly: Selectivity interaction (Kinase panel (Invitrogen)) EUB0000639a PAK6. The following applies: at 200 nM.
Chain of Serine/threonine-protein kinase PAK 6 (Homo sapiens) (Q9NQU5 whole entry, looked up): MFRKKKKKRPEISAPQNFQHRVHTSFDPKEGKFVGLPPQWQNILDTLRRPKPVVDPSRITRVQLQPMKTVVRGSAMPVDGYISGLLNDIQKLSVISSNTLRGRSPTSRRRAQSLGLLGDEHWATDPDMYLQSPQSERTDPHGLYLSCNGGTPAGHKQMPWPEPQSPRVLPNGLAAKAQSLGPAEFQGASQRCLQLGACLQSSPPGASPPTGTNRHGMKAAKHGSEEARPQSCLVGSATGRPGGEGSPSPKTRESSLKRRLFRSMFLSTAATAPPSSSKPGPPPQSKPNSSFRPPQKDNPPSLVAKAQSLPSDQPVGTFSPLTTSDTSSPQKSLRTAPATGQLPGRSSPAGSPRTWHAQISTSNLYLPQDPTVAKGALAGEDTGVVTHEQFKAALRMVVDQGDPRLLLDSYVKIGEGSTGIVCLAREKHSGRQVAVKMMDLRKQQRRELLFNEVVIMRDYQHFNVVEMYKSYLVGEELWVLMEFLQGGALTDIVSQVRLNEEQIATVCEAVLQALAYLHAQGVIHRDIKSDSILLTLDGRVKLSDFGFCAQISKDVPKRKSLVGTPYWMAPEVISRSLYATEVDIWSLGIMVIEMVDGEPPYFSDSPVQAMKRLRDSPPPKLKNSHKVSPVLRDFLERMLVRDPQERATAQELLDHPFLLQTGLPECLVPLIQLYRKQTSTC
Test [6] concerns the target Serine/threonine-protein kinase tousled-like 2 (Homo sapiens) (UniProt Q86UE8). Nature of the test: Selectivity interaction (ActivX KiNativ screen (kinase selectivity in THP-1 cell lysates)) EUB0000639a TLK2. It is filed as subcellular. The following applies: lysate, at 0.2 µM.
Test [7] has as its target Ribosomal protein S6 kinase alpha-3 (Homo sapiens, UniProt P51812). Briefly: Selectivity interaction (ActivX KiNativ screen (kinase selectivity in THP-1 cell lysates)) EUB0000639a RPS6KA3. The following applies: lysate, at 5 µM. It is filed as subcellular.
Test [8] addresses T3, Mitogen-activated protein kinase kinase kinase 2 (Homo sapiens) (UniProt Q9Y2U5).
T3 sequence (whole entry): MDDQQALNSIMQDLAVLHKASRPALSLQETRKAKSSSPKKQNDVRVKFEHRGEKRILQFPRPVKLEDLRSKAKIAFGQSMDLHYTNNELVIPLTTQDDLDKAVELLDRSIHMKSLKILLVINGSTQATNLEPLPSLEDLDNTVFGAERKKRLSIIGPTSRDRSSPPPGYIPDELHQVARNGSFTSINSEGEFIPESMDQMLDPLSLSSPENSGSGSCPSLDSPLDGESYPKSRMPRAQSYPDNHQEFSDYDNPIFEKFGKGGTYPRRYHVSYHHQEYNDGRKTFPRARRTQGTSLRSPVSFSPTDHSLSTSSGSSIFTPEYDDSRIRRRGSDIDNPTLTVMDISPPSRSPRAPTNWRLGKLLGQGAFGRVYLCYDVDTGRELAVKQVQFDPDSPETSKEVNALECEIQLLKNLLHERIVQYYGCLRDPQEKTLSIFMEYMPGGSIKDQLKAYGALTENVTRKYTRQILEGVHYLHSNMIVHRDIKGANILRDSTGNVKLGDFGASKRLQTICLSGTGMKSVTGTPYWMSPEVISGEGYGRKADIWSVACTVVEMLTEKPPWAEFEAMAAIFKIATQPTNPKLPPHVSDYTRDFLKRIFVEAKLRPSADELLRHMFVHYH
Briefly: Selectivity interaction (KinomeScan (DiscoverX)) EUB0001049a MAP3K2. Conditions: at 1 µM.

Test [9] addresses Myosin light chain kinase 2, skeletal/cardiac muscle (Homo sapiens) (UniProt Q9H1R3). Briefly: Selectivity interaction (ProQinase) EUB0000171b MYLK2.
The target of test [10] is T4, cGMP-dependent protein kinase 2 (Homo sapiens) (UniProt Q13237).
T4 sequence (whole entry): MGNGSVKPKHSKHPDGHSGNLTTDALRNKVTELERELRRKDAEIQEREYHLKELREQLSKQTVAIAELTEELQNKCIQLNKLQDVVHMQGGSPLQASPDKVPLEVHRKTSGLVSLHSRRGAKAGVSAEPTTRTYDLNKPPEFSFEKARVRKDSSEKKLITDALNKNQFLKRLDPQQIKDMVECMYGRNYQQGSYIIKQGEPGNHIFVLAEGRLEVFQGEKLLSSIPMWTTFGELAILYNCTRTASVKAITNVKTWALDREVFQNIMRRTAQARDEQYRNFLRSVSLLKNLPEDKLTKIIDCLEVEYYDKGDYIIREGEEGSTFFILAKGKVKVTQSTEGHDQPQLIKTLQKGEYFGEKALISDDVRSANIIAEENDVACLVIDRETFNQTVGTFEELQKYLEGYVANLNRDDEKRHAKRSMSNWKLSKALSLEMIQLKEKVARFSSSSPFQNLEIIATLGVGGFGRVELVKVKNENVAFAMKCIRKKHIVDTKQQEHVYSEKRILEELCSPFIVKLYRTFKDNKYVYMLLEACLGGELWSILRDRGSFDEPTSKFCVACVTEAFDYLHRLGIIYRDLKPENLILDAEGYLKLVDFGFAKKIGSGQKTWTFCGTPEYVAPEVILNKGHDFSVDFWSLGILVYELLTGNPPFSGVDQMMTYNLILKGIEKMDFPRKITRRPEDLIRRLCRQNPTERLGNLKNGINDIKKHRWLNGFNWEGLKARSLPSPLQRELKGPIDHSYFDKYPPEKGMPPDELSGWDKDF
Nature of the test: Selectivity interaction (ProQinase) EUB0000171b PRKG2.

Chain of Serine/threonine-protein kinase tousled-like 2 (Homo sapiens) (Q86UE8 whole entry, looked up): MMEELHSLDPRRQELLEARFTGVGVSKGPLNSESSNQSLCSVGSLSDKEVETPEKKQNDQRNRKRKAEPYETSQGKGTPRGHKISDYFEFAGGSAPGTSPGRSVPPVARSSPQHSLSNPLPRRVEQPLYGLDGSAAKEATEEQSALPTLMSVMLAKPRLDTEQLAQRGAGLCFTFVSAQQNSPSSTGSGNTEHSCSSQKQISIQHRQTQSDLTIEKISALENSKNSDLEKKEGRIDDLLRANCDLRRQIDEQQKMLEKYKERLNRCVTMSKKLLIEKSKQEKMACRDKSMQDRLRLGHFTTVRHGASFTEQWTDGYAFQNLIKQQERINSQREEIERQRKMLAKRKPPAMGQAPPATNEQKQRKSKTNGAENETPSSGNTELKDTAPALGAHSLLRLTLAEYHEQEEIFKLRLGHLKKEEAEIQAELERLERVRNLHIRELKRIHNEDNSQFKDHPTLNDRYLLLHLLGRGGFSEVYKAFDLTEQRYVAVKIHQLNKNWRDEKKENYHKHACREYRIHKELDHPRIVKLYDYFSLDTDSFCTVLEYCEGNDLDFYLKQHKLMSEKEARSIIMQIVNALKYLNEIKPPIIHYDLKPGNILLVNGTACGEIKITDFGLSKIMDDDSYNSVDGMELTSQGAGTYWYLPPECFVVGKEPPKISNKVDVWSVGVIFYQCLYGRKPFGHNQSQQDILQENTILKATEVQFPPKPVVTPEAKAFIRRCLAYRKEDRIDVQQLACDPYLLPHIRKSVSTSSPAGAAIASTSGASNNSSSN
Chain of Myosin light chain kinase 2, skeletal/cardiac muscle (Homo sapiens) (Q9H1R3 whole entry): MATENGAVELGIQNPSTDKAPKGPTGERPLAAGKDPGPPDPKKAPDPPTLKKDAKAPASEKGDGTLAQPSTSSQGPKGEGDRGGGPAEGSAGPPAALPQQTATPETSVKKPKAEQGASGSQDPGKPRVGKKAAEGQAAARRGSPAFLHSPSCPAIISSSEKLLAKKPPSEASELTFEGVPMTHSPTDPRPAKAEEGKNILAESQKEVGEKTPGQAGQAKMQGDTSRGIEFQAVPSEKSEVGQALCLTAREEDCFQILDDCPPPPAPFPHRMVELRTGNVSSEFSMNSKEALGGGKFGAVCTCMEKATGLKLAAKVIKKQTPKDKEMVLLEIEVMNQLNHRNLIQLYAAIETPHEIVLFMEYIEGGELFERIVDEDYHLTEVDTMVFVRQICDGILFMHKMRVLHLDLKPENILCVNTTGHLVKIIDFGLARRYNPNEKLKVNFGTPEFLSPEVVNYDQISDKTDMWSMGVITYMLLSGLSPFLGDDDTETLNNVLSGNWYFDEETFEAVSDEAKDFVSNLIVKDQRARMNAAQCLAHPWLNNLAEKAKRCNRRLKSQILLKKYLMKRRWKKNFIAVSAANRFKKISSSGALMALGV
Chain of Ribosomal protein S6 kinase alpha-3 (P51812 whole entry): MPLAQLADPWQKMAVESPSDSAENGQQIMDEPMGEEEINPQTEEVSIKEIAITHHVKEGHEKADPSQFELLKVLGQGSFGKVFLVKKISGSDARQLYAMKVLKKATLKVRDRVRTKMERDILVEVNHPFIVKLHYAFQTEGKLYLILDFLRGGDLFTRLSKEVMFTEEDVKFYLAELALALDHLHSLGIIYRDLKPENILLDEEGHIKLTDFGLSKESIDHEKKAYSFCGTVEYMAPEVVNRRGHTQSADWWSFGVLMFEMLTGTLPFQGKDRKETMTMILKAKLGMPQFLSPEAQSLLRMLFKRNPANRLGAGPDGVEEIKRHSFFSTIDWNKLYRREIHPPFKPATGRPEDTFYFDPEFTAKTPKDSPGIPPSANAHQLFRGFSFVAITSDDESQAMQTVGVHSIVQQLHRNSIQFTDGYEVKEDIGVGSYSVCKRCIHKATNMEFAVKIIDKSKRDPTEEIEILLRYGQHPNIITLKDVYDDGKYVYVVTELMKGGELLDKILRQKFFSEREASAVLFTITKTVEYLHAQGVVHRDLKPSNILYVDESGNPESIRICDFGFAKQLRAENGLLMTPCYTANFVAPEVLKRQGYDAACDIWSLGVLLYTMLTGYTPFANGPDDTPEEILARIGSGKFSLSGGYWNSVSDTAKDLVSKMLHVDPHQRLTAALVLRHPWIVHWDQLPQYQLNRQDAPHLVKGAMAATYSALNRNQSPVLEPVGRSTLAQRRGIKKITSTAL
Chain of ALK tyrosine kinase receptor (Q9UM73 19-1620 limits assumed): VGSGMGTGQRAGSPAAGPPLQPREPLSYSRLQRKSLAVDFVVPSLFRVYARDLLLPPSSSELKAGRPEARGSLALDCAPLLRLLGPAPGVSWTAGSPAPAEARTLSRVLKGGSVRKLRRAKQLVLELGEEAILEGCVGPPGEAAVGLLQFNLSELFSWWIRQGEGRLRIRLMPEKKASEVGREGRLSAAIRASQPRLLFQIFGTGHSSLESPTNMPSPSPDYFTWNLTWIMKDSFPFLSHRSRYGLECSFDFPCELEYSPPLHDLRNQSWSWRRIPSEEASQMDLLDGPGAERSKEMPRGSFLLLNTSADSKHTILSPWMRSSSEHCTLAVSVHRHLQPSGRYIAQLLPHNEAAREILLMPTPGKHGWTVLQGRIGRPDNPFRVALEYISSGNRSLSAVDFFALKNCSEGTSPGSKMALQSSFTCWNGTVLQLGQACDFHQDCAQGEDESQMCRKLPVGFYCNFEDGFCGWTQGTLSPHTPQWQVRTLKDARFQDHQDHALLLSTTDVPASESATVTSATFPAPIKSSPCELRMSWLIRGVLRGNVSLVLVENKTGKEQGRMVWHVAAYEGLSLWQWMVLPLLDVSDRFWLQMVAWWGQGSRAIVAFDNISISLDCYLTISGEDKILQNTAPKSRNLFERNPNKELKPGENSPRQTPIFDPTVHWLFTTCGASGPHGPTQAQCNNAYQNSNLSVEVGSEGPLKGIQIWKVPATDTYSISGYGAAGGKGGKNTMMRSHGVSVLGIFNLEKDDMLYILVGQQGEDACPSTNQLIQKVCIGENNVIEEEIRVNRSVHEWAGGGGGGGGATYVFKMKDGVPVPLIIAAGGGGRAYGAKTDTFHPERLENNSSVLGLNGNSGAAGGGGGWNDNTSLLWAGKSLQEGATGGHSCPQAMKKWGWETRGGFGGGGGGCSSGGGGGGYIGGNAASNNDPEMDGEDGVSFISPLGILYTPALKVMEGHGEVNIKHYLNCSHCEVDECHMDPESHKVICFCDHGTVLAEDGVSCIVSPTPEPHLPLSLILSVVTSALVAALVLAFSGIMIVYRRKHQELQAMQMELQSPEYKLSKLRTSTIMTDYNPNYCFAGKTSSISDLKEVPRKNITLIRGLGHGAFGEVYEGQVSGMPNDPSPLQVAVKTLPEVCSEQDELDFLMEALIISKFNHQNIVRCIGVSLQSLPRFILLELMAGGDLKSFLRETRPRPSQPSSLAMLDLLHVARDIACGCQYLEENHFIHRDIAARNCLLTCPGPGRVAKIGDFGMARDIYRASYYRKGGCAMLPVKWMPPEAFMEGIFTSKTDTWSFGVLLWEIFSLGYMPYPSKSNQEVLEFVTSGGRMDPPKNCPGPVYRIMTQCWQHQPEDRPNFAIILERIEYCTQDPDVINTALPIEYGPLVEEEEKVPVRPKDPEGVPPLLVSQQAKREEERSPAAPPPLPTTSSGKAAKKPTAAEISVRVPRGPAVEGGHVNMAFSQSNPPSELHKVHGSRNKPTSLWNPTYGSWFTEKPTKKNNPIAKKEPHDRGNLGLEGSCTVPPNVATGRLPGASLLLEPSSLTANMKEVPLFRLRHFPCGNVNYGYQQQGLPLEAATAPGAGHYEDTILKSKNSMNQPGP

Consider `O=C(NOC[C@H](O)CO)c1ccc(F)c(F)c1Nc1ccc(I)cc1F`, for which the values for the % of control in test [1] and in test [2] were 98% and 77%, respectively.

The molecule `CC(C)(O)[C@H](F)CN1Cc2cc(NC(=O)c3cnn4cccnc34)c(N3CCOCC3)cc2C1=O` gave a dTM in test [3] of 0.9 K.

With `CCc1cc(Nc2nccc(-c3c(-c4ccc(OC)c(C(=O)Nc5c(F)cccc5F)c4)nc4ccccn34)n2)c(OC)cc1N1CCC(N2CCN(S(C)(=O)=O)CC2)CC1`, in [4], the % of inhibition is 39%.

Turning to `CC[C@@H]1[C@H](F)C(=O)N[C@@H]1COc1nccc2cc(C(N)=O)c(OC)cc12` [ZIMLOVISERTIB], the values for the % of inhibition in test [5], in test [6] and in test [7] were 5.16%, 16.8% and -3%, respectively.

Consider `COc1cc(Nc2nc(C)cc(-c3cnn4nc(OC)ccc34)n2)cc(C(F)(F)F)c1`, for which the % of control in test [8] was 87%.

Take `C=CC(=O)Nc1cccc(C(=O)Nc2ccc(Nc3cc(-c4[nH]c(SC)nc4C)ccn3)cc2)c1`: the % of control in [9] (at 1 µM) stood at 83%; in [9] (at 5 µM), 59%; in test [10] (at 1 µM), 84%; in [10] (at 5 µM), 81%.
